Like-named read-outs stand apart in the source and are kept apart here.
Experiments:
[1] = molecular target: T1, human recombinant beta-1 receptors (Homo sapiens, UniProt P08588); assay: β1-receptor radioligand binding, [125I] iodocyanopindolol, CHO-REX16 cells; conditions: at 100 nM
T1 construct: expressed in transfected cells; host or cells: CHO-REX16 cells
Method: […] receptor binding was measured in human recombinant beta-1 receptors expressed in CHO-REX16 cells, using [^125I] (-) iodocyanopindolol (2000 Ci/mmol) as the radioligand, as described in Kalaria et al., J. Neurochem. 53: 1772-81 (1998), and Minneman et al., Mol. Pharmacol. 16: 34-46 (1979).

PDE3 = molecular target: T2, PDE3 (Homo sapiens, UniProt Q14432); assay: In vitro assay for cAMP PDE-3 inhibitory activity; type: biochemical
T2 construct: from tissue; host or cells: human platelets
T2 sequence (Q14432 whole entry): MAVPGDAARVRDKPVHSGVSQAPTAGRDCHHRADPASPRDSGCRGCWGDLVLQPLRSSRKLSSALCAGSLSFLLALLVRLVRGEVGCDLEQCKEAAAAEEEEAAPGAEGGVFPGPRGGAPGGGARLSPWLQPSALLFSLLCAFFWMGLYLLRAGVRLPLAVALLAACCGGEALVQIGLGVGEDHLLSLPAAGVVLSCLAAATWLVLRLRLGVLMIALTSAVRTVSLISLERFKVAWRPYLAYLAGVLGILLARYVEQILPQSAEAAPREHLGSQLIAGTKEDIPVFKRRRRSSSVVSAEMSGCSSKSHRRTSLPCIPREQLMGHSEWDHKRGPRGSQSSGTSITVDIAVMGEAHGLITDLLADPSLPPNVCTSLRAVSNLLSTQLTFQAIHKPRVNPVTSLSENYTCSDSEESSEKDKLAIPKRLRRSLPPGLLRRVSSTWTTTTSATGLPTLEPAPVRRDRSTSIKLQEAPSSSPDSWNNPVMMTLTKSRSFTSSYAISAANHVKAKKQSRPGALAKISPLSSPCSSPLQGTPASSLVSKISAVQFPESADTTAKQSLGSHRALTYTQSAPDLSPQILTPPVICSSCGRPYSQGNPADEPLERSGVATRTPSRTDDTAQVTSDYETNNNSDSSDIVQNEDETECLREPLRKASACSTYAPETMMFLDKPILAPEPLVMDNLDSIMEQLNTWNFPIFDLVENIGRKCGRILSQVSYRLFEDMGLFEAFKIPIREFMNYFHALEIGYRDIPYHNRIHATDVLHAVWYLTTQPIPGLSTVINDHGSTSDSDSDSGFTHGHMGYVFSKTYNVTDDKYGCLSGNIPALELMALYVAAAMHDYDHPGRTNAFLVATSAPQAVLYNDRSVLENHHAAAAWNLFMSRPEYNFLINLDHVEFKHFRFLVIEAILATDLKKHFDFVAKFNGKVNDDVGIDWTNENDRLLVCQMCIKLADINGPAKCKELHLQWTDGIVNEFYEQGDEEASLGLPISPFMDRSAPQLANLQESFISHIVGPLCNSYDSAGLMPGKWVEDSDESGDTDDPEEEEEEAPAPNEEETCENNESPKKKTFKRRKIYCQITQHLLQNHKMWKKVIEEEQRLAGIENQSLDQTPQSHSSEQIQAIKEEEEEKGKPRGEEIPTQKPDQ
Method: Human platelet cyclic AMP phosphodiesterase was prepared according to the method of Alvarez et al., Mol. Pharmacol. 29: 554 (1986). The PDE incubation medium contained 10 mM Tris-HCl buffer, pH 7.7, 10 mM MgSO4, and 1 μM […] (0.2 μCi) in a total volume of 1.0 mL. Test compounds were dissolved in DMSO immediately prior to addition to the incubation medium, and the resulting mixture was allowed to stand for 10 minutes prior to the addition of enzyme. Following the addition of PDE, the contents were mixed and incubated for 10 minutes at 30° C. Three assays each were performed for each of five test compound concentrations, the mean of the determinations (n=3) at each concentration was plotted, and IC50 values were determined graphically.
(§1) The ability of Compounds 25 and 8c to inhibit PDE3 and β-adrenergic receptor activity was examined both in vitro and in vivo. […] Non-selective β-adrenergic and β1-adrenergic radioligand binding assays were performed using rat cortical membranes; β2-adrenergic receptor assays were performed using membranes isolated from CHO cells expressing human, recombinant b2-adrenergic receptor; non-selective α1-adrenergic receptor assays were performed using rat forebrain membranes; and PDE3 binding assays were performed on human platelets. Values in percent illustrate percent inhibition at 1000 nM concentration.

[2] = tested on: isolated ventricular myocytes; assay: Sarcomere shortening (contractility) in isolated ventricular myocytes; type: cell-based, rabbit
Method: […] Isoproterenol, a potent β-Adrenergic agonist, can produce large increases in cardiac contraction, calcium transient amplitude, and the rates of relaxation (acceleration of relaxation or lusitropic effect). The effects of isoproterenol are then antagonized with different concentrations of a compound of the present invention.
Cardiac myocytes were digested from healthy white New Zealand male rabbits (3-5 lbs), with enzymatic digestion. Briefly, each animal is anesthetized with ketamine (50 mg/kg) and xylazine (6 mg/kg)-IM injection in hind limb. Once the animal was sedated (˜10-15 min), 0.1-0.3 ml of pentobarbital was injected into the ear vein. The heart was exposed by a cut just below the rib-cage and bilateral thoracotomy and removed rapidly ensuring that aorta remains intact. The heart was immediately placed in oxygenated NT with Ca^2+ placed on ice for rinsing the blood out, cleared from vessels and pericardium, cannulated and maintained at 37° C. The heart was retrogradedly perfused and tissue digested with collagenase and protease. Digested myocytes were subsequently stored in 0.1 mM Ca^2+ normal tyrodes for further analyses. Sarcomere length changes upon treatment with test compounds were recorded at 37° C. in the presence of 2 mM calcium and analyzed with an IonOptix system. Sarcomere length data was acquired for each myocyte over an average of 10 beats duration, at pacing rates of 1, 2, and 3 Hz. Basal percent sarcomere shortening and length-frequency relation of each myocyte was evaluated, and serve as a measure of cellular viability.
In vitro studies were performed using rabbit ventricular tissue, to examine the effects of Compounds 25 and 8c on myocyte contractility. New Zealand male rabbits (1.5-2.5 kg) were anesthetized with ketamine (50 mg/kg) and xylazine (6 mg/kg)-IM. The heart was exposed and removed rapidly to ensure that the aorta remained intact. The ventricular tissue was digested enzymatically. Sarcomere shortening was measured in the presence of 2 mM calcium at 37° C. using an IonOptix system; reported values were at 2 Hz pacing frequency.

α1-adrenergic receptor = assay: Non-selective α1-adrenergic receptor assay using rat forebrain membranes; type: binding
Method: as §1

[3] = tested on: human fetal cardiac fibroblasts; assay: Cyclic-AMP production by fluorescence (intrinsic sympathomimetic activity); type: cell-based; conditions: IBMX (750 μM) present; compared to isoproterenol or forskolin; any concentration tested
Method: The effect of Compound 8c on cyclic-AMP production was determined in human fetal cardiac fibroblasts by fluorescence, presented in FIG. 18 as [F−Fo)/Fo], mean±SEM, N=4. IBMX (750 μM) was present in all assays.

[4] = tested on: White New Zealand male rabbits; assay: In vivo β-adrenergic blockade, isoproterenol challenge (Protocol 1); parameters: species or system rabbit
Method: (§2) Studies were performed on White New Zealand male rabbits (2-3 kg weight). Animals were initially anesthetized with ketamine (50 mg/kg; IM) and xylazine (6 mg/kg, IM). Subsequently, animals were intubated (via tracheotomy; 3 mm tube) and ventilated with 2% isoflurane (mixed in 95% O2+5% CO2). Each rabbit was instrumented for LV pressure (3F Millar catheter) through right carotid artery, arterial pressure (3F catheter, Cook Instruments) through left femoral artery, which was connected to a fluid-filled pressure transducer (BD Instruments), and ECG. Both pressure transducers were zeroed against atmospheric pressure, and calibrated before each study using an analog manometer. Upon completion of instrumentation, isoflurane was reduced to 1.25%, and the animal was covered for maintenance of body core temperature. Arterial and LV blood pressures (LVP) and the ECG signals were simultaneously digitally recorded on a PC. The recording system (Gould Instruments) and the corresponding software (Ponema, Gould Instruments) facilitated detailed calculation of various parameters directly from all signals and record on a separate file with a 1 sec resolution. Upon completion of the study protocol, rabbits were euthenized by isoflurane overdose (5% for at least 1 minute) and cardiac arrest through IV infusion of 5 ml 3 molar potassium chloride.
(§3) Once the physiological variables were stable, effects of each drug on hemodynamics and ECG were determined based on two different protocols: 1) infusion of a compound of the present invention to determine the effects of the compound itself mainly on contractility, and other hemodynamic indices; and 2) infusion of a compound of the present invention while the system was challenged with 0.5 ug/kg isoproterenol to determine the beta-adrenergic antagonism properties of each tested compound.
(§4) White New Zealand male rabbits (2-3 kg) were anesthetized and ventilated (95% O2+5% CO2) with 1.25% isoflurane. Each animal was instrumented for LV pressure (Millar, through left carotid artery), arterial pressure (left femoral artery), infusion (jugular vein), and electrocardiogram. The animals were administered intravenously based on one of these protocols:
Protocol 1: β-adrenergic blockade (isoproterenol challenge).

[5] = molecular target: beta-receptors from rat cortical membranes; assay: Non-specific β-receptor radioligand binding, [3H]DHA; conditions: read-out: Non-selective β-adrenergic IC50
Method: (§5) Non-selective β-adrenergic and β1-adrenergic radioligand binding assays were performed using rat cortical membranes; β2-adrenergic receptor assays were performed using membranes isolated from CHO cells expressing human, recombinant b2-adrenergic receptor; non-selective α1-adrenergic receptor assays were performed using rat forebrain membranes; and PDE3 binding assays were performed on human platelets. Values in percent illustrate percent inhibition at 1000 nM concentration.

[6] = molecular target: T3, human recombinant beta-2 receptors (Homo sapiens, UniProt P07550); assay: β2-receptor radioligand binding, [125I] iodocyanopindolol, CHO-WT21 cells
T3 construct: expressed in transfected cells; host or cells: CHO-WT21 cells
T3 sequence (P07550 whole entry): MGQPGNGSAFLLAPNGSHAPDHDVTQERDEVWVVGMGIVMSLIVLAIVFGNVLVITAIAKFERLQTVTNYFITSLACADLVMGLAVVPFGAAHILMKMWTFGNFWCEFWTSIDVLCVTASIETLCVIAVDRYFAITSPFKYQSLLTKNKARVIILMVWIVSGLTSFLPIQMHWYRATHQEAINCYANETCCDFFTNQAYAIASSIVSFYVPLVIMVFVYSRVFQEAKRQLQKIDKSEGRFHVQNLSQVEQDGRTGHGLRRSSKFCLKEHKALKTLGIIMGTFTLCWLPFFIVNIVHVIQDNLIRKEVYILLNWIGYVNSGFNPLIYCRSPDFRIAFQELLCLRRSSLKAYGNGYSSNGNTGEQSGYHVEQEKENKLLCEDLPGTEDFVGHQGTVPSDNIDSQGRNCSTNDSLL
Method: as §5

[7] = tested on: White New Zealand male rabbits; assay: In vivo β-adrenergic blockade, isoproterenol challenge (Protocol 1); parameters: species or system rabbit; dose or concentration left out as unconfirmed; conditions: during isoproterenol challenge, intravenous, FIG. 10
[8] = tested on: White New Zealand male rabbits; assay: In vivo hemodynamic effects of compounds administered alone (Protocol 2); parameters: species or system rabbit
Method: as §2, §3, §4
Protocol 2: PDE3 inhibition (effects of compounds when administered alone).

β1-adrenergic receptor = molecular target: T4, β1-adrenergic receptor (Rattus norvegicus, UniProt P18090); assay: β1-adrenergic radioligand binding assay using rat cortical membranes
T4 construct: from tissue; host or cells: rat cortical membranes
T4 sequence (P18090 whole entry): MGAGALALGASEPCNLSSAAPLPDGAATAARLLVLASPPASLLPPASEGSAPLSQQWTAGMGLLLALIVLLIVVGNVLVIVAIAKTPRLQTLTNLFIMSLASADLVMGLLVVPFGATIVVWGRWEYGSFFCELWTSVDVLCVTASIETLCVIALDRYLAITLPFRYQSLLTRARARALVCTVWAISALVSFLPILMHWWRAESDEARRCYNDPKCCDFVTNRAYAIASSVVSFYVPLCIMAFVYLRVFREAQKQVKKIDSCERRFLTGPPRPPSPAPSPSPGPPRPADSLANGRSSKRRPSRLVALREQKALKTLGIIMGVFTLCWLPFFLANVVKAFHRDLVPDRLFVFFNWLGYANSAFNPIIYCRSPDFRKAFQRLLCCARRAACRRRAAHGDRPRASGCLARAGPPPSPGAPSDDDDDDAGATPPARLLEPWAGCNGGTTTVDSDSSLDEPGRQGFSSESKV
Method: as §5

T1 sequence (P08588 whole entry): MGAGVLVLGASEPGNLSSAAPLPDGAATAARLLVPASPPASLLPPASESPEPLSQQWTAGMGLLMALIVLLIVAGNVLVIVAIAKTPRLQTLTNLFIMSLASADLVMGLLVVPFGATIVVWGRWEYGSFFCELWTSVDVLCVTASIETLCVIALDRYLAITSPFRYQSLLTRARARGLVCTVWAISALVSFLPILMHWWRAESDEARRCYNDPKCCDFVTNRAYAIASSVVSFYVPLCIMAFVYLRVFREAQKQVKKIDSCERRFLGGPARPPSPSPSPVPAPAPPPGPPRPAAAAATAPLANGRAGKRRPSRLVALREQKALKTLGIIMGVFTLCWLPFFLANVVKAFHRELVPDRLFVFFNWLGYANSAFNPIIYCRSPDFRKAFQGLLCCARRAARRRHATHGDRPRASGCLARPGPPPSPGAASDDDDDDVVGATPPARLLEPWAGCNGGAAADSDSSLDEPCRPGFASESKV

## O=C1CCC(c2ccc(OCC(=O)N3CCC(NC[C@H](O)COc4ccccc4Cl)CC3)c(Cl)c2)=NN1 [Compound 8c, 6-[3-Chloro-4-(2-{4-[3-(2-chloro-phenoxy)-2-hydroxy-propylamino]-piperidin-1-yl}-2-oxo-ethoxy)-phenyl]-4,5-dihydro-2H-pyridazin-3-one]
[1]
  inhibition at 0.1 µM: > 25%
PDE3; human platelet cyclic AMP phosphodiesterase, bound stated, read-out: PDE3 inhibition IC50
  IC50: < 1 µM
PDE3; human platelets, read-out: PDE3 IC50
  IC50: 0.15 µM
[2]; 0.1 μM isoproterenol (not shown)
  blocking of isoproterenol effect on myocyte contractility: blocking the effects of 0.1 mM isoproterenol
[2]; 2 mM calcium, 37° C., 2 Hz pacing frequency
  contractility (sarcomere shortening) in isolated ventricular myocytes: increased contractility
α1-adrenergic receptor
  IC50: 0.226 µM
[3]
  intrinsic sympathomimetic activity (cyclic-AMP production): did not possess intrinsic sympathomimetic activity
[4]; doses that completely diminished isoproterenol-dependent increase in heart rate: atenolol 1 mg/kg, carvedilol 0.3 mg/kg, Compound 8c 1 mg/kg, mean±SEM
  decrease of left ventricular contractility (% of isoproterenol effect): 73±4%
[4]; during isoproterenol challenge (0.5 μg/kg), FIG. 11
  β-adrenergic antagonism on heart rate (HR): dose-dependent β-adrenergic antagonism
[5]
  IC50: 0.014 µM
[6]; at 100 nM
  inhibition at 0.1 µM: > 25%
[6]; membranes from CHO cells expressing human recombinant β2-adrenergic receptor
  IC50: 0.0008 µM
[7]
  β-adrenergic antagonism on left ventricular contractility: potent dose-dependent β-adrenergic antagonism
[8]; Protocol 2, with and without atropine and bilateral vagotomy (FIG. 16)
  heart rate when administered alone: did not increase heart rate
[8]; doses that completely diminished isoproterenol-dependent increase in heart rate, Protocol 2, FIG. 15
  mean arterial pressure: did not have a significant effect
[8]; protocol 2, relative to control, FIGS. 2, 12
  left ventricular contractility when administered alone: increased or maintained contractility in a dose-dependent manner
β1-adrenergic receptor
  IC50: 0.005 µM
